Results on 19 compounds are retold here after PubChem BioAssay (NCI).

“And” between values parts separate entries of the source, which are not always exact repeats. Equal values may be shown once.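 Dose response: 5 concentrations. Exposure: 48 h. Format: 96-well plates. Endpoint: linear interpolation; highest concentration if not reached. GI50 is the concentration that inhibits growth by half. At the TGI there is no net growth.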

Some test systems named below: SNB-19 CNS; SNB-75 CNS; OVCAR-5 ovarian; OVCAR-4 ovarian; KM12 colon; NCI-H522 lung; CCRF-CEM leukemia; HCT-116 colon; MALME-3M melanoma; SK-MEL-2 melanoma; PC-3 prostate; MCF7 breast.
Assay in all cases: NCI anticancer screen, dose series, 48 h

Regarding `COc1cc2c(cc1O)[C@H](C)C(c1ccc(Cl)cc1)O2` (some centres undefined), the TGI in the assay with SNB-19 CNS was over 100 µM; in the assay with SNB-75 CNS, 43.3 µM; with OVCAR-5 ovarian it was over 100 µM; with OVCAR-4 ovarian, over 100 µM; with KM12 colon it was 62.1 µM; in the assay with NCI-H522 lung, 27.3 µM. In addition, the TGI worked out at 39 µM in the assay with CCRF-CEM leukemia, 30.1 µM with HCT-116 colon, 80.6 µM in the assay on MALME-3M melanoma and 56 µM in the assay with SK-MEL-2 melanoma.

With `N#CI1OC(=O)c2ccccc21`, the TGI in the assay with PC-3 prostate was over 100 µM; in the assay with SNB-75 CNS, over 100 µM; with OVCAR-5 ovarian, over 100 µM; with OVCAR-4 ovarian, over 100 µM; in the assay on KM12 colon, over 100 µM; with NCI-H522 lung, 55.6 µM. The TGI with CCRF-CEM leukemia, in the assay with HCT-116 colon, with MCF7 breast and in the assay with SK-MEL-2 melanoma was over 100 µM in each case.

Take `COC(=O)/C(=C/c1ccc(OC)cc1)C(C(=O)O)=C(C)C`: the TGI in the assay with SNB-19 CNS, in the assay on OVCAR-5 ovarian, in the assay with KM12 colon, with NCI-H522 lung, with CCRF-CEM leukemia and in the assay on HCT-116 colon was over 100 µM throughout. For the same compound, the TGI in the assay with MALME-3M melanoma and in the assay with SK-MEL-2 melanoma was over 100 µM in each case.

Regarding `O=C(CCN1CCCCC1CCO)Nc1ccc2c(c1)C(=O)c1ccc(NC(=O)CCN3CCCCC3CCO)cc1C2=O` (centres undefined), the TGI stood at 26.2 µM in the assay with SNB-19 CNS; 9.83 µM with SNB-75 CNS; 61.2 µM in the assay with OVCAR-5 ovarian; 45.4 µM with OVCAR-4 ovarian; 9.87 µM with KM12 colon; 5.32 µM in the assay on NCI-H522 lung. The TGI with CCRF-CEM leukemia is over 100 µM; in the assay on HCT-116 colon it was 14.7 µM; in the assay on MALME-3M melanoma, 10.9 µM; in the assay on SK-MEL-2 melanoma, 7.27 µM.

For the compound `CCCCOC1CC2(c3ccc(OC)cc3)C(=O)c3ccccc3N2O1` (centres undefined), the TGI was over 10 µM in the assay with SNB-19 CNS; over 100 µM with SNB-75 CNS; over 10 µM in the assay on OVCAR-5 ovarian; over 100 µM in the assay on KM12 colon; 81.2 µM in the assay on NCI-H522 lung; over 100 µM in the assay on CCRF-CEM leukemia. Also, the TGI with HCT-116 colon is over 100 µM; in the assay on MALME-3M melanoma, 58.3 µM; with SK-MEL-2 melanoma it was over 100 µM.

Turning to `CC1=C/C(=C(\c2ccc(N(C)C)cc2)c2ccc([N+](C)(C)C)cc2)C=CC1=[N+](C)C`, the TGI with SNB-19 CNS came out at 89.4 µM; in the assay on SNB-75 CNS, 10.6 µM; with OVCAR-5 ovarian, 69 µM; in the assay on OVCAR-4 ovarian it was 32.9 µM; with KM12 colon it was 16.1 µM; with NCI-H522 lung it was 31.2 µM. Also, the results for the TGI in the assay on HCT-116 colon, in the assay with MALME-3M melanoma and with SK-MEL-2 melanoma were 14.3 µM, 32.3 µM and 35 µM, respectively.

Turning to `C=C1CC2CC[C@@]34C[C@@H]5O[C@@H]6C(O[C@H]7CC[C@H](CC(=O)OC8[C@@H](C)C9OC%10C[C@]%11(C[C@@H]%12O[C@@]%13(C[C@@H](C)[C@@H]%12O%11)C[C@H](C)[C@@H]%11OC%12CC(C(O)CO)OC%12C[C@@H]%11O%13)OC%10CC9O[C@H]8C[C@H]8O[C@@H](CC[C@@H]1O2)C[C@@H](C)C8=C)O[C@@H]7[C@@H]6O3)C5O4` (some centres undefined), the GI50 in the assay with SNB-19 CNS was under 0.000148 µM; in the assay with OVCAR-5 ovarian, over 1.48 µM; with OVCAR-4 ovarian it was over 1.48 µM; in the assay on KM12 colon, under 0.000148 µM; with NCI-H522 lung, under 0.000148 µM; in the assay on CCRF-CEM leukemia, under 0.000148 µM. Besides, in the assay on HCT-116 colon, the GI50 was under 0.000148 µM. In addition, the TGI in the assay with SNB-19 CNS is 0.0127 µM; in the assay on SNB-75 CNS, 0.00367 µM; in the assay on OVCAR-5 ovarian it was over 1.48 µM; in the assay with OVCAR-4 ovarian, over 1.48 µM; with NCI-H522 lung, 0.000594 µM and < 0.000148 µM; in the assay with HCT-116 colon, 0.00327 µM. Besides, the TGI is over 1.48 µM with MCF7 breast, 0.00977 µM in the assay with MALME-3M melanoma and 0.00727 µM in the assay on SK-MEL-2 melanoma.

Take `COc1ccc(NC(=S)NN=C(C)c2cccc(C(C)=NNC(=S)Nc3ccc(OC)cc3)n2)cc1`: the TGI in the assay on PC-3 prostate was over 100 µM; in the assay with SNB-19 CNS it was over 100 µM; with SNB-75 CNS, over 100 µM; with OVCAR-5 ovarian, over 100 µM; with OVCAR-4 ovarian, over 100 µM; with KM12 colon, 84.2 µM. Also, the TGI in the assay with NCI-H522 lung, in the assay on CCRF-CEM leukemia, in the assay with HCT-116 colon, in the assay on MALME-3M melanoma and in the assay on SK-MEL-2 melanoma was over 100 µM throughout.

With `CC(C)(C)C1CC[C@H]2c3c([nH]c4ccc(Br)cc34)[C@H]3C(=O)N(c4ccccc4)C(=O)[C@H]3[C@H]2C1` (some centres undefined), the TGI in the assay with SNB-19 CNS was 66.9 µM; in the assay on SNB-75 CNS, 54.9 µM; in the assay on OVCAR-5 ovarian, over 100 µM; with OVCAR-4 ovarian it was 33.3 µM; in the assay with KM12 colon, over 100 µM; with NCI-H522 lung, 69.3 µM. For the same compound, the TGI is 20.1 µM in the assay with CCRF-CEM leukemia, over 100 µM with HCT-116 colon, over 100 µM with MALME-3M melanoma and over 100 µM with SK-MEL-2 melanoma.

With `CC12CC3c4ccccc4CN1C3(c1ccccc1)OC2=O` (centres undefined), the TGI in the assay with PC-3 prostate, with SNB-19 CNS, in the assay with SNB-75 CNS, in the assay on OVCAR-5 ovarian, with OVCAR-4 ovarian and in the assay with KM12 colon was over 100 µM throughout. Further, the TGI in the assay with NCI-H522 lung, with CCRF-CEM leukemia, in the assay with HCT-116 colon, with MALME-3M melanoma and in the assay on SK-MEL-2 melanoma was over 100 µM in each case.

On to `CCCCCCC1CCC2CCCC(C)N12` (centres undefined), for which the TGI with SNB-19 CNS was over 100 µM; in the assay with SNB-75 CNS, over 100 µM; in the assay on OVCAR-4 ovarian, over 100 µM; with KM12 colon it was over 100 µM; in the assay with NCI-H522 lung, over 100 µM; with CCRF-CEM leukemia, 62 µM. Besides, the figures for the TGI with HCT-116 colon, with MALME-3M melanoma and in the assay on SK-MEL-2 melanoma were over 100 µM, over 10 µM and 69.2 µM, respectively.

`c1cnc2c(c1)-n1cccc1C1(CCOCC1)NN2`: the TGI in the assay with SNB-19 CNS, in the assay on SNB-75 CNS, in the assay with OVCAR-4 ovarian, in the assay on KM12 colon, with NCI-H522 lung and in the assay with CCRF-CEM leukemia was over 100 µM each time. The TGI in the assay with HCT-116 colon, in the assay on MALME-3M melanoma and in the assay on SK-MEL-2 melanoma was over 100 µM each time.

As to `O=C(/C=C/c1ccc(OCCCCCCCCCCOc2ccc(/C=C/C(=O)c3ccc(Cl)cc3)cc2)cc1)c1ccc(Cl)cc1`, the TGI in the assay with SNB-19 CNS, in the assay with SNB-75 CNS, in the assay with OVCAR-5 ovarian, in the assay on KM12 colon, in the assay with NCI-H522 lung and in the assay on CCRF-CEM leukemia was over 100 µM throughout. For the same compound, the TGI in the assay on MALME-3M melanoma and with SK-MEL-2 melanoma was over 100 µM in each case.

Turning to `On1c(-c2ccccc2)c(-c2c(-c3ccccc3)n(O)c3ccccc23)c2ccccc21`, the TGI is over 100 µM in the assay with SNB-19 CNS; 94 µM in the assay on SNB-75 CNS; over 100 µM with OVCAR-4 ovarian; over 100 µM in the assay on KM12 colon; 52.3 µM in the assay with NCI-H522 lung; over 100 µM with CCRF-CEM leukemia. Moreover, the TGI in the assay with HCT-116 colon was over 100 µM; in the assay on MALME-3M melanoma, 79.7 µM; in the assay on SK-MEL-2 melanoma, 59.2 µM.

For `O=C(NCCNCCO)N/N=C/c1cccc([N+](=O)[O-])c1`, the TGI with SNB-75 CNS, in the assay on OVCAR-5 ovarian, in the assay with OVCAR-4 ovarian, in the assay on KM12 colon, in the assay with NCI-H522 lung and with CCRF-CEM leukemia was over 100 µM each time. Moreover, the TGI in the assay on HCT-116 colon, with MALME-3M melanoma and with SK-MEL-2 melanoma was over 100 µM in each case.

As to `COC(=O)OCC1OC(N2C(=O)NC(=O)C(I)C2N=[N+]=[N-])CC1OC(=O)OC` (centres undefined), the TGI with SNB-19 CNS, in the assay on SNB-75 CNS, in the assay on OVCAR-5 ovarian, in the assay with OVCAR-4 ovarian, with KM12 colon and with NCI-H522 lung was over 100 µM in each case. In addition, the TGI in the assay with CCRF-CEM leukemia, in the assay with HCT-116 colon and with MALME-3M melanoma was over 100 µM in each case.

With `Cc1cc(Br)c(N2C3=C(CC4=C2CCCC4=O)C(=O)CCC3)c(Br)c1`, the TGI in the assay with PC-3 prostate, in the assay with SNB-19 CNS, in the assay with SNB-75 CNS, with OVCAR-5 ovarian, in the assay with OVCAR-4 ovarian and in the assay on KM12 colon was over 100 µM each time. For the same compound, the TGI in the assay with CCRF-CEM leukemia and in the assay with MCF7 breast was over 100 µM each time.

As to `O=C(NC1CCCCC1)c1c(O)[nH]c(=S)[nH]c1=O`, the TGI in the assay with SNB-19 CNS, with SNB-75 CNS, in the assay with OVCAR-5 ovarian, in the assay on OVCAR-4 ovarian, in the assay on KM12 colon and in the assay on NCI-H522 lung was over 100 µM each time. The TGI with CCRF-CEM leukemia, in the assay on HCT-116 colon, in the assay on MALME-3M melanoma and in the assay with SK-MEL-2 melanoma was over 100 µM each time.

`Oc1c(Cl)c2nccnc2c2ccccc12`: the TGI in the assay on SNB-75 CNS, in the assay on OVCAR-5 ovarian, in the assay with OVCAR-4 ovarian, in the assay with KM12 colon, in the assay on NCI-H522 lung and with CCRF-CEM leukemia was over 100 µM throughout. Moreover, the TGI in the assay with HCT-116 colon, in the assay with MALME-3M melanoma and with SK-MEL-2 melanoma was over 100 µM each time.
